From EP1027887B1, “Matrix controlled release device” (Pfizer Products Inc., priority 1999, dated 2000)
In brackets after ≈: the same amount, converted by molar mass.

Key:
Assay type in all cases: physicochemical
[1] = Water solubility of the drug
[2] = In vitro dissolution test in 30 ml MFD solution (Reference Example 5)
Procedure: (§1) Phosphate buffered saline solution (PBS) was prepared comprising 20 mM sodium phosphate, […] potassium phosphate, 87 mM NaCl and 0.2 mM KCl, adjusted to pH 6.5. Four in vitro dissolution tests were performed in 35 mL of the PBS solution at 37°C to test the effectiveness of drug release from the dosage composition of the invention as measured against Controls A, B and C. Drug concentrations over time were determined by periodically withdrawing samples of each of the four solutions, centrifuging the samples for 1 minute at 13,000 rpm to pellet any undissolved drug, sampling the supernate, and analyzing the sample by High Performance Liquid Chromatography (HPLC) to thereby calculate drug concentrations.
(§2) A Model Fasted Duodenum (MFD) solution which mimics the chemical environment in the small intestine was prepared, comprising the PBS solution described in Example 1 mixed with 14.7 mM sodium taurocholic acid and 2.8 mM of 1-palmitoyl-2-oleyl-sn-glycero-3-phosphocholine. Four in vitro dissolution tests were performed in 500 mL of the so-prepared MFD solution to test the effectiveness of drug release from the dosage composition of the invention against Controls D, E and F. The sampling and analysis were carried out as in Example 1.
An MFD solution was prepared as in Example 2. Four in vitro dissolution tests were performed in 30 ml of the MFD solution to test the effectiveness of drug release from the dosage composition of the invention against Controls J, K and L. The sampling and analysis were carried out as in Example 1.

[3] = In vitro dissolution test in 500 mL Model Fasted Duodenum (MFD) solution (Example 2); conditions: 500 mL MFD solution
Procedure: as §1, §2

[4] = In vitro dissolution test in 35 mL PBS solution (Example 1); conditions: 35 mL PBS pH 6.5, 37°C
Procedure: as §1

[5] = In vitro dissolution test in 40 mL PBS solution (Reference Example 3); conditions: 37°C
Procedure: as §1
As a control (Control G), tablets were similarly prepared except rather than using the drug/CAP solid dispersion, a mixture of 1 part crystalline drug to 3 parts CAP was used. As a second control (Control H), 26 mg of crystalline drug alone was used. As a third control (Control I), 105.3 mg of the solid dispersion with no erodible matrix was used. In order to determine the drug release profile of the dosage form of the present invention as compared to the controls, in vitro dissolution tests in 40 mL of the PBS solution of Example 1 at 37°C were performed as in Example 1.

CN[C@H]1CC[C@@H](c2ccc(Cl)c(Cl)c2)c2ccccc21.Cl (relative stereo) [(1S-cis)-4-(3,4-dichlorophenyl)-1,2,3,4-tetrahydro-N-methyl-1-napthalenamine hydrochloride]
water solubility [1]: 70 µg/mL

CN[C@H]1CC[C@@H](c2ccc(Cl)c(Cl)c2)c2ccccc21.Cl (relative stereo) [Control K, (1S-cis)-4-(3,4-dichlorophenyl)-1,2,3,4-tetrahydro-N-methyl-1-napthalenamine hydrochloride]
AUC ([2]; time 0 min): 0 µg·min/mL | [Drug] ([2]; time 0 min): 0 µg/mL | AUC ([2]; time 10 min): 1073 µg·min/mL | [Drug] ([2]; time 10 min): 0 µg/mL | AUC ([2]; time 20 min): 5459 µg·min/mL | [Drug] ([2]; time 20 min): 358 µg/mL | AUC ([2]; time 40 min): 16706 µg·min/mL | [Drug] ([2]; time 40 min): 520 µg/mL | AUC ([2]; time 90 min): 37083 µg·min/mL | [Drug] ([2]; time 90 min): 605 µg/mL | AUC ([2]; time 120 min): 40231 µg·min/mL | [Drug] ([2]; time 120 min): 210 µg/mL | AUC ([2]; time 240 min): 52796 µg·min/mL | [Drug] ([2]; time 240 min): 130 µg/mL | AUC ([2]; time 360 min): 70528 µg·min/mL | [Drug] ([2]; time 360 min): 159 µg/mL | AUC ([2]; time 540 min): 108647 µg·min/mL | [Drug] ([2]; time 540 min): 136 µg/mL | [Drug] ([2]; time 1200 min): 128 µg/mL

CON(C)C(=O)C(O)[C@H](Cc1ccccc1)NC(=O)c1cc2cc(Cl)ccc2[nH]1 (stereo in doubt) [Control E, [R-(R*S*)]-5 chloro-N-[2-hydroxy-3-[(methoxymethylamino)-3-oxo-1(phenylmethyl)propyl]propyl]-1H-indole-2-carboxymide]
AUC ([3]; time 0 min): 0 µg·min/mL | [Drug] ([3]; time 0 min): 0.0 µg/mL | AUC ([3]; time 10 min): 21 µg·min/mL | [Drug] ([3]; time 10 min): 6.9 µg/mL | AUC ([3]; time 20 min): 72 µg·min/mL | [Drug] ([3]; time 20 min): 3.2 µg/mL | AUC ([3]; time 40 min): 172 µg·min/mL | [Drug] ([3]; time 40 min): 6.8 µg/mL | AUC ([3]; time 90 min): 795 µg·min/mL | [Drug] ([3]; time 90 min): 18.1 µg/mL | AUC ([3]; time 120 min): 1281 µg·min/mL | [Drug] ([3]; time 120 min): 14.3 µg/mL | AUC ([3]; time 180 min): 2219 µg·min/mL | [Drug] ([3]; time 180 min): 17.0 µg/mL | AUC ([3]; time 240 min): 2992 µg·min/mL | [Drug] ([3]; time 240 min): 8.8 µg/mL | AUC ([3]; time 360 min): 4030 µg·min/mL | [Drug] ([3]; time 360 min): 8.5 µg/mL | AUC ([3]; time 525 min): 5756 µg·min/mL | [Drug] ([3]; time 525 min): 10.7 µg/mL | AUC ([3]; time 720 min): 7525 µg·min/mL | [Drug] ([3]; time 720 min): 9.0 µg/mL | [Drug] ([3]; time 1200 min): 8.0 µg/mL

O=C(N[C@@H](Cc1ccccc1)[C@@H](O)C(=O)N1C[C@@H](O)[C@@H](O)C1)c1cc2cc(Cl)ccc2[nH]1 [Control B, 5-chloro-1H-indole-2-carboxylic acid [(1S) -benzyl-3-((3R,4S) -dihydroxypyrrolidin-1-yl-) - (2R) -hydroxy-3-oxypropyl]amide]
AUC ([4]; time 0 min): 0 µg·min/mL | [Drug] ([4]; time 0 min): 0.0 µg/mL | AUC ([4]; time 4 min): 180 µg·min/mL | [Drug] ([4]; time 4 min): 90.1 µg/mL | AUC ([4]; time 10 min): 754 µg·min/mL | [Drug] ([4]; time 10 min): 101.0 µg/mL | AUC ([4]; time 20 min): 1753 µg·min/mL | [Drug] ([4]; time 20 min): 98.8 µg/mL | AUC ([4]; time 40 min): 4402 µg·min/mL | [Drug] ([4]; time 40 min): 166.1 µg/mL | AUC ([4]; time 90 min): 12252 µg·min/mL | [Drug] ([4]; time 90 min): 147.9 µg/mL | AUC ([4]; time 120 min): 16937 µg·min/mL | [Drug] ([4]; time 120 min): 164.5 µg/mL | AUC ([4]; time 180 min): 25991 µg·min/mL | [Drug] ([4]; time 180 min): 137.3 µg/mL | AUC ([4]; time 240 min): 34362 µg·min/mL | [Drug] ([4]; time 240 min): 141.8 µg/mL | AUC ([4]; time 360 min): 52528 µg·min/mL | [Drug] ([4]; time 360 min): 161.0 µg/mL | AUC ([4]; time 525 min): 80574 µg·min/mL | [Drug] ([4]; time 525 min): 179.0 µg/mL | AUC ([4]; time 720 min): 113346 µg·min/mL | [Drug] ([4]; time 720 min): 157.2 µg/mL

O=C(N[C@@H](Cc1ccccc1)[C@@H](O)C(=O)N1C[C@@H](O)[C@@H](O)C1)c1cc2cc(Cl)ccc2[nH]1 [Control H, 5-chloro-1H-indole-2-carboxylic acid [(1S) -benzyl-3-((3R,4S) -dihydroxypyrrolidin-1-yl-) - (2R) -hydroxy-3-oxypropyl]amide]
AUC ([5]; time 0 min): 0 µg·min/mL | [Drug] ([5]; time 0 min): 0.0 µg/mL | AUC ([5]; time 10 min): 0 µg·min/mL | [Drug] ([5]; time 10 min): 107.8 µg/mL | AUC ([5]; time 20 min): 323 µg·min/mL | [Drug] ([5]; time 20 min): 130.1 µg/mL | AUC ([5]; time 40 min): 1513 µg·min/mL | [Drug] ([5]; time 40 min): 109.1 µg/mL | AUC ([5]; time 90 min): 3906 µg·min/mL | [Drug] ([5]; time 90 min): 118.1 µg/mL | AUC ([5]; time 120 min): 9587 µg·min/mL | [Drug] ([5]; time 120 min): 121.8 µg/mL | AUC ([5]; time 180 min): 13186 µg·min/mL | [Drug] ([5]; time 180 min): 151.7 µg/mL | AUC ([5]; time 240 min): 21392 µg·min/mL | [Drug] ([5]; time 240 min): 170.4 µg/mL | AUC ([5]; time 360 min): 31055 µg·min/mL | [Drug] ([5]; time 360 min): 135.3 µg/mL | AUC ([5]; time 540 min): 49395 µg·min/mL | [Drug] ([5]; time 540 min): 134.8 µg/mL | AUC ([5]; time 720 min): 73701 µg·min/mL | [Drug] ([5]; time 720 min): 168.3 µg/mL

CON(C)C(=O)[C@H](O)[C@H](Cc1ccccc1)NC(=O)c1cc2cc(Cl)ccc2[nH]1 [[R-(R*S*)]-5 chloro-N-[2-hydroxy-3-[(methoxymethylamino)-3-oxo-1(phenylmethyl)propyl]propyl]-1H-indole-2-carboxymide]
solubility [1]: 1 µg/mL (≈ 2.4 µM)
